Measured values from US7320993B1, “Aryl-substituted pyridylalkane, alkene, and alkine carboxamides useful as cytostatic useful as cytostatic and immuosuppressive agents” (Astellas Deutschland GmbH, priority 1997, dated 2008).
Read-outs that look alike come from different tables or passages of the source.

Tests used:
A549 cells = assay: Growth inhibition of A549 human lung carcinoma cells (sulforhodamin-B method); format: cell-based
Description: (§1) The tumor growth inhibiting activity of the substances was determined on human tumor cells in standardized in vitro test systems. In the screening tests, the substances gave IC50-values in a concentration range of 0.1 nM to 10 μM.
(§2) A549 cells derived from a human lung carcinoma plated at a density of 20,000 cells/ml in 12-well plastic dishes. Cultivation occurred in Richters IMEM-ZO nutrient medium with 5% foetal calf serum (FCS) in a tissue culture incubator with a gas mixture of 5% CO2 and 95% air at a temperature of 37° C. One day after plating, the culture medium was aspirated from the cells and replaced by fresh medium which contained the respective concentrations of the test substances. For the individual concentrations and the controls without test substances, three-fold batches were done for each. Three days after the beginning of treatment, the medium was again renewed with the test compounds. After four days of substance incubation, the test was ended and the protein amount in the individual wells was determined with the sulforhodamin-B-method (according to P. Skehan et al.: New Colorimetric Cytotoxicity Assay for Anticancer-Drug Screening. J. Natl. Cancer Inst. 82: 1107-1112, 1990). The IC50-values (defined as that concentration in which the cell growth was inhibited by 50%) was taken from the dose-response curves and given as a comparative measurement for the activity of the test compounds.

HepG2 cells = assay: Growth inhibition of HepG2 human liver carcinoma cells (sulforhodamin-B method); format: cell-based
Description: as §1
as §2, with “HepG2” for “A549”, “liver” for “lung”, “[…]” for “20,000”, “six” for “four”

[1] = system: freshly isolated lymphocytes; assay: Immunosuppressing activity on freshly isolated spleen lymphocytes (flow cytometry, vital cells); format: cell-based; settings: Lymphocyte, 48 h; Swiss mouse spleen lymphocytes, 2 days incubation, percentage of vital cells by flow-through cytometer
Text: Many anti-tumor agents have not only a cytotoxic effect on tumor cells, but also on the blood cell system. This leads to a weakening of the immune defense, which can, in turn, be specifically employed to suppress the rejection reaction after an organ transplantation for example. Also use of the main compounds, optionally in combination with other immunological diseases (for example, psoriasis or autoimmune diseases) seems likely. In order to test the possibility for a therapeutic use in illnesses of this type, the substance activity was tested on freshly isolated lymphocytes as follows:
The spleen of a Swiss mouse served as a lymphocyte source. The lymphocyte population was isolated from the spleen cell […] suspension over a ficoll gradient and taken up in IMEM-ZO culture medium with 0.1% dextran 70,000 and 2% foetal calf serum. The cells were plated at a density of ca. 500,000 cells/well/ml in a 12-well plate, 1 ml doubly concentrated test substance solution was pipetted per well and this was subsequently incubated in a tissue culture incubator at 37° C. and 5% CO2. After 2 days, a 1 ml-aliquot with 5 μl of the fluorescent dye solutions propidium iodide (8 mg/ml) and 3,3′-dihexyloxacarbocyanin iodide (40 μg/ml) each was added per well, and incubated for 3 minutes at room temperature. Subsequently, 10,000 cells per each sample were measured on a flow-through cytometer and the percentage amount of vital cells in the population was determined. By means of the dose-response curves, IC50-values were calculated which were also employed in the following Tables for the characterization of the individual substances: […]

THP-1 cells = assay: Growth inhibition of THP-1 human monocytic leukemia cells (WST-1 reagent); format: cell-based
Description: as §1
THP-1 cells derived from a human monocytic leukemia plated at a density of 200,000 cells/ml in 96-well plastic dishes. Cultivation occurred in RPMI 1640 nutrient medium with 10% foetal calf serum (FCS) in a tissue culture incubator with a gas mixture of 5% CO2 and 95% air at a temperature of 37° C. For the individual concentrations and the controls without test substances as well as for the background with nutrient medium but without cells, three-fold batches were done for each. After four days of substance incubation 20 μl WST-1 reagent (Boehringer Mannheim) was respectfully pipetted in each individual well. After 30 to 60 minute incubation in the tissue culture incubator at 37° C. and 5% CO2, the light extinction was measured in an ELISA reader at 450 nm wave length. The backgrounds were each subtracted from the typical measured valves. The IC50-values (defined as that concentration in which the cell growth was inhibited by 50%) was taken from the dose-response curves and given as a comparative measurement for the activity of the test compounds.

[2] = 96 h, A549 cells, four days of substance incubation, protein amount by sulforhodamin-B, read-out: IC50-value
[3] = 144 h, HepG2 cells, six days of substance incubation, protein amount by sulforhodamin-B, read-out: IC50-value

Row | Structure (SMILES) | melting point [°C] | other results
1 | O=C(C=Cc1cccnc1)NCCCCCCCc1ccccc1 [Substance 3, N-(7-phenyl-heptyl)-3-pyridin-3-yl-acrylamide] | 61 to 63 | IC50 (A549 cells; [2]): 8 µM
2 | O=C(C=Cc1cccnc1)NCCCCCC(O)(c1ccccc1)c1ccccc1 [Substance 31, N-(6-hydroxy-6,6-diphenyl-hexyl)-3-pyridin-3-yl-acrylamide] | 145 to 147 | 
3 | O=C(C=Cc1cccnc1)NCCCCC=C(c1ccccc1)c1ccccc1 [Substance 120, N-(6,6-diphenyl-hex-5-enyl)-3-pyridin-3-yl-acrylamide] | 120 to 121 | IC50 (HepG2 cells; HepG2, hepatocelluar carcinoma, methods of point 1, read-out: IC50-values): 0.0005 µM; IC50 (A549 cells; A549, lung carcinoma, methods of point 1, read-out: IC50-values): 0.002 µM; IC50 (THP-1 cells; 96 h, THP-1 cells, four days of substance incubation, WST-1, extinction at 450 nm, read-out: IC50-value): 0.0002 µM; IC50 (THP-1 cells; THP-1, monocytic leukemia, methods of point 1, read-out: IC50-values): 0.0002 µM; IC50 [1]: 0.0005 µM
4 | O=C(C=Cc1cccnc1)NCCCCNC(c1ccccc1)c1ccccc1 [Substance 187, N-[4-(benzhydryl-amino)-butyl]-3-pyridin-3-yl-acrylamide] | 101 to 102 | IC50 (HepG2 cells; [3]): 0.2 µM; IC50 (A549 cells; [2]): 0.4 µM
5 | CN(CCCCNC(=O)C=Cc1cccnc1)CCN(C)C(c1ccccc1)c1ccccc1 [Substance 193, N-(4-{[2-(benzhydryl-methyl-amino)-ethyl]-methyl-amino}-butyl)-3-pyridin-3-yl-acrylamide] | 89 to 91 | IC50 (A549 cells; [2]): 1 µM
6 | O=C(C=Cc1cccnc1)NCCCCNC(=O)C(c1ccccc1)c1ccccc1 [Substance 247, N-(4-diphenylacetylamino-butyl)-3-pyridin-3-yl-acrylamide] | 171 to 172 | IC50 (A549 cells; [2]): 2 µM; IC50 [1]: 0.08 µM
7 | O=C(C=Cc1cccnc1)NCCCCCCNC(=O)N1c2ccccc2CCc2ccccc21 [Substance 295, N-[6-(10,11-dihydro-dibenzo[b,f]azepin-5-yl-carbonylamino)-hexyl]-3-pyridin-3-yl-acrylamide] | 97 to 99 | 
8 | Cc1ccc(S(=O)(=O)NCCCCCCNC(=O)C=Cc2cccnc2)cc1 [Substance 310, 3-Pyridin-3-yl-N-[6-(tosylamino)-hexyl]-acrylamide] | 91 to 93 | 

Now from value to molecule, other results behind:

Row | melting point [°C] | Structure (SMILES) | other results
9 | 194 to 196 | O=C(C=Cc1cccnc1)NCCCCNC(=O)[C@@H]1C[C@H]1c1ccccc1 (relative stereo) [Substance 250, N-[4-(trans-2-phenyl-cyclopropyl-carbonylamino)-butyl]-3-pyridin-3-yl-acrylamide] | 
10 | 157 to 159 | O=C(C=Cc1cccnc1)NCCCCC(O)(c1ccccc1)c1ccccc1 [Substance 27, N-(5-hydroxy-5,5-diphenyl-pentyl)-3-pyridin-3-yl-acrylamide] | IC50 (HepG2 cells; [3]): 0.04 µM
11 | 139 to 140 | O=C(C=Cc1cccnc1)NCCCCCCCC(O)(c1ccccc1)c1ccccc1 [Substance 41, N-(8-hydroxy-8,8-diphenyloctyl)-3-pyridin-3-yl-acrylamide] | 
12 | 183 | O=C(C=Cc1cccnc1)NCCCCn1cnc(-c2ccccc2)c1-c1ccccc1 [Substance 63, N-[4-(4,5-diphenyl-imidazol-1-yl)-butyl]-3-pyridin-3-yl-acrylamide] | IC50 (HepG2 cells; [3]): 0.008 µM; IC50 [1]: 0.0003 µM
13 | 92 to 94 | O=C(C=Cc1cccnc1)NCCCCN1CCc2ccccc2C(c2ccccc2)C1 (centres unmarked) [Substance 207, N-[4-(1-phenyl-1,2,4,5-tetrahydrobenzo[d]azepin-3-yl)-butyl]-3-pyridin-3-yl-acrylamide] | 
14 | 123 to 125 | O=C(C=Cc1cccnc1)NCCCCNC(=O)N(c1ccccc1)c1ccccc1 [Substance 268, N-[4-(3,3-diphenyl-ureido)-butyl]-3-pyridin-3-yl-acrylamide] | 
15 | 105 to 107 | O=C(C=Cc1cccnc1)NCCCCCCNC(=O)N(c1ccccc1)c1ccccc1 [Substance 270, N-[6-(3,3-diphenyl-ureido)-hexyl]-3-pyridin-3-yl-acrylamide] | 
